# Data reported in US10045990B2, “ERBB4 inhibitors and methods of use thereof” (Arizona Board of Regents on behalf of Arizona State …, priority 2015, dated 2018).
# Like-named read-outs stand apart in the source and are kept apart here.
# Assays:
# [1] = target: T1, EPHA1 (Homo sapiens, UniProt P21709); experiment: NAPPA array kinase autophosphorylation assay; assay type: biochemical; settings: DMSO = 100
# T1 construct: made in house; host or cells: human cell-free coupled transcription-translation (1-Step Human Coupled IVT), on the slide
# Protocol: (§1) Protein microarrays were generated using NAPPA (Nucleic acid programmable protein array) methodology, which permits the use of freshly expressed proteins for functional assays (FIG. 1). In NAPPA, cDNAs coding for the target of interest are cloned into an expression vector, which generates a fusion (Halo Tag, GST, etc.) to the target, and spotted onto a glass slide. Then to each spot, a HeLa cell in vitro transcription-translation reagent is added, whereby the fusion gene is transcribed into mRNA and translated. The nascent proteins are captured to the slide with antibody to the fusion partner (i.e., HaloTag-ligand, α-GST antibody) that is spotted adjacent to the DNA during the manufacture of the array. This method allows for up to thousands of protein targets to be arrayed. NAPPA microarrays can be expressed using an in vitro transcription and translation system (IVTT), and the anti-tag antibody captures newly synthesized proteins. Following expression, the microarrays were treated with phosphatase to remove any phosphorylation that occurred during the expression of the proteins.
# (§2) De-phosphorylated arrays were then incubated with kinase buffer containing various concentrations of ATP and/or kinase inhibitors. The kinase activity was measured as end point assay using anti-phopho tyrosine antibody linked to cy3 as the detecting agent (FIG. 2). The data was normalized using positive control features present in each array.
# (§3) NAPPA kinase microarrays we generated with virtually all protein-tyrosine kinases from the human genome. The coding sequence for each tyrosine kinase was clone into an expression plasmid and immobilized on the microarray surface, with one protein kinase per feature. After the microarray was expressed, any phosphorylation that occurred during the expression step was removed by a treatment with lambda phosphatase.
# (§4) Unphosphorylated microarrays were then incubated with a kinase buffer (25 mM Tris-HCl (pH 7.5), 5 mM beta-glycerophosphate, 2 mM dithiothreitol (DTT), 0.1 mM Na3VO4, 10 mM MgCl2) supplemented with […] and/or kinase inhibitors (concentration ranging from 0-10 uM). The kinase autophosphorylation activity was measured through the levels of phosphorylation present in each feature and was detected by phospho-tyrosine antibody. […] Staurosporine is a pan kinase inhibitor used as a control.
# (§5) NAPPA arrays suitable for measuring the activity of protein kinases and evaluating the selectivity of kinase inhibitors were produced using a variation of the published protocol (Proteomics Clin Appl. 2013 June; 7(5-6):372-7.). Briefly, NAPPA printing mix was prepared with plasmid DNA coding for genes of interest, anti-flag antibody, cross-linker and poly-lysine. Samples were agitated for 90 minutes at 1200 rpm at RT and printed in quadruplicate in aminopropyltriethoxysilane coated glass slides.
# (§6) Arrays were stored in an airtight container at room temperature until use.
# [2] = target: SYK (Homo sapiens, UniProt P43405); experiment: NAPPA array kinase autophosphorylation assay; assay type: biochemical; settings: DMSO = 100
# Protocol: as §1, §2, §3, §4, §5, §6
# [3] = target: T2, TESK2 (Homo sapiens, UniProt Q96S53); experiment: NAPPA array kinase autophosphorylation assay; assay type: biochemical; settings: DMSO = 100
# T2 construct: made in house; host or cells: human cell-free coupled transcription-translation (1-Step Human Coupled IVT), on the slide
# Protocol: as §1, §2, §3, §4, §5, §6
# [4] = target: T3, ERBB3/HER3 (Homo sapiens, UniProt P21860); experiment: NAPPA array kinase autophosphorylation assay; assay type: biochemical; settings: DMSO = 100
# T3 construct: made in house; host or cells: human cell-free coupled transcription-translation (1-Step Human Coupled IVT), on the slide
# Protocol: as §1, §2, §3, §4, §5, §6
# [5] = target: T4, FGFR4 (Homo sapiens, UniProt P22455); experiment: NAPPA array kinase autophosphorylation assay; assay type: biochemical; settings: DMSO = 100
# T4 construct: made in house; host or cells: human cell-free coupled transcription-translation (1-Step Human Coupled IVT), on the slide
# Protocol: as §1, §2, §3, §4, §5, §6
# [6] = target: T5, TNK2 (Homo sapiens, UniProt Q07912); experiment: NAPPA array kinase autophosphorylation assay; assay type: biochemical; settings: DMSO = 100
# T5 construct: made in house; host or cells: human cell-free coupled transcription-translation (1-Step Human Coupled IVT), on the slide
# Protocol: as §1, §2, §3, §4, §5, §6
# [7] = target: T6, EPHA3 (Homo sapiens, UniProt P29320); experiment: NAPPA array kinase autophosphorylation assay; assay type: biochemical; settings: DMSO = 100
# T6 construct: made in house; host or cells: human cell-free coupled transcription-translation (1-Step Human Coupled IVT), on the slide
# Protocol: as §1, §2, §3, §4, §5, §6
# [8] = target: T7, EGFR/ERBB1 (Homo sapiens, UniProt P00533); experiment: NAPPA array kinase autophosphorylation assay; assay type: biochemical; settings: DMSO = 100
# T7 construct: made in house; host or cells: human cell-free coupled transcription-translation (1-Step Human Coupled IVT), on the slide
# Protocol: as §1, §2, §3, §4, §5, §6
# [9] = target: T8, EPHA7 (Homo sapiens, UniProt Q15375); experiment: NAPPA array kinase autophosphorylation assay; assay type: biochemical; settings: DMSO = 100
# T8 construct: made in house; host or cells: human cell-free coupled transcription-translation (1-Step Human Coupled IVT), on the slide
# Protocol: as §1, §2, §3, §4, §5, §6
# [10] = target: T9, Tec (Homo sapiens, UniProt P42680); experiment: NAPPA array kinase autophosphorylation assay; assay type: biochemical; settings: DMSO = 100
# T9 construct: made in house; host or cells: human cell-free coupled transcription-translation (1-Step Human Coupled IVT), on the slide
# Protocol: as §1, §2, §3, §4, §5, §6
# [11] = target: T10, DYRK2 (Homo sapiens, UniProt Q92630); experiment: NAPPA array kinase autophosphorylation assay; assay type: biochemical; settings: DMSO = 100
# T10 construct: made in house; host or cells: human cell-free coupled transcription-translation (1-Step Human Coupled IVT), on the slide
# Protocol: as §1, §2, §3, §4, §5, §6
# [12] = system: BCRABL; experiment: NAPPA array kinase autophosphorylation assay; assay type: biochemical, human; settings: DMSO = 100
# [13] = system: H661; experiment: cell growth / viable cell count in ERBB4-overexpressing, BTK-negative cell line; assay type: cell-based, human
# [14] = target: T11, YES1 (Homo sapiens, UniProt P07947); experiment: NAPPA array kinase autophosphorylation assay; assay type: biochemical; settings: Yes1 (second entry), DMSO = 100
# T11 construct: made in house; host or cells: human cell-free coupled transcription-translation (1-Step Human Coupled IVT), on the slide
# [15] = system: responsive cell lines; experiment: cell based assays, responsive cell lines; parameters: species or system human
# [16] = target: Abl1 (Homo sapiens, UniProt P00519); settings: DMSO = 100
# Protocol: as §1, §2, §3, §4
# as §5, with “Samples were agitated for 90 minutes at 1200 rpm at RT and printed in quadruplicate in aminopropyltriethoxysilane coated glass slides.” left out
# [17] = target: BTK (Homo sapiens, UniProt Q06187); settings: DMSO = 100
# Protocol: as §1, §2, §3, §4
# as §5, with “Samples were agitated for 90 minutes at 1200 rpm at RT and printed in quadruplicate in aminopropyltriethoxysilane coated glass slides.” left out
# T3 sequence (P21860 20-1342): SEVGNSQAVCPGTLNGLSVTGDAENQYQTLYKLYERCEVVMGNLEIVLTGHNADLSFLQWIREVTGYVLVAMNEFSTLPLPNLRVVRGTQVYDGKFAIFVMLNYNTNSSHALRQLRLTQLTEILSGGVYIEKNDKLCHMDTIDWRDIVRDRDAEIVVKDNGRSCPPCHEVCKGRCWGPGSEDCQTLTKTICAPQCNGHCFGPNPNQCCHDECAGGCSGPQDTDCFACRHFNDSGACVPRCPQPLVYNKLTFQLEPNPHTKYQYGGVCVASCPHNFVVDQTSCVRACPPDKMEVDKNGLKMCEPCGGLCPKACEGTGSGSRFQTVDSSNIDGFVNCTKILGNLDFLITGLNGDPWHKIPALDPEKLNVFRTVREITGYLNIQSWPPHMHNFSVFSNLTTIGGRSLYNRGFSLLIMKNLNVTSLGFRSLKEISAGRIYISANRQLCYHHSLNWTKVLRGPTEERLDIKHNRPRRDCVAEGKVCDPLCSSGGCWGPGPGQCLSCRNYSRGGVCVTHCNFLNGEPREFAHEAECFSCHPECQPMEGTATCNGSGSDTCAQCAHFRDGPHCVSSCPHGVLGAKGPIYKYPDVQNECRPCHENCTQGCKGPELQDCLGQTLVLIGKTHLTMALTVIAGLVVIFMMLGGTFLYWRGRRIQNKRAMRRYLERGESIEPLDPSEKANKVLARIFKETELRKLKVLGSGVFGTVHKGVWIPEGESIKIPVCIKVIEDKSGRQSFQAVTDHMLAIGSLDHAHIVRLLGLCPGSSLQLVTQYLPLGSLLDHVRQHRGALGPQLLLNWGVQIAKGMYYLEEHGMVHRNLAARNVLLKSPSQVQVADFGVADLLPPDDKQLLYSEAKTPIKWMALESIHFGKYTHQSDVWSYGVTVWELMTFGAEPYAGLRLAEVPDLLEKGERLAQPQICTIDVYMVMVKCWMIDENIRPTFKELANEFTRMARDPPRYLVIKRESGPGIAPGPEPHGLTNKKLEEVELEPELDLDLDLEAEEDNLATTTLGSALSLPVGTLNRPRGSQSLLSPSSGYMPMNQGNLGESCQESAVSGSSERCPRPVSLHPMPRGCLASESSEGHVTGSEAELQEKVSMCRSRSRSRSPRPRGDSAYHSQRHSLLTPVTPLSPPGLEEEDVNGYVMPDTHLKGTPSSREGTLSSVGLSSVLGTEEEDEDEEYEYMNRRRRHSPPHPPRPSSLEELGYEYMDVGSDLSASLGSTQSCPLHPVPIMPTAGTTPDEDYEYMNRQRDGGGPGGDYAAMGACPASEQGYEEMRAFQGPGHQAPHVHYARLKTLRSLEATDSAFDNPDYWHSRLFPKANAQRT
# Sequence of BTK (Q06187 whole entry): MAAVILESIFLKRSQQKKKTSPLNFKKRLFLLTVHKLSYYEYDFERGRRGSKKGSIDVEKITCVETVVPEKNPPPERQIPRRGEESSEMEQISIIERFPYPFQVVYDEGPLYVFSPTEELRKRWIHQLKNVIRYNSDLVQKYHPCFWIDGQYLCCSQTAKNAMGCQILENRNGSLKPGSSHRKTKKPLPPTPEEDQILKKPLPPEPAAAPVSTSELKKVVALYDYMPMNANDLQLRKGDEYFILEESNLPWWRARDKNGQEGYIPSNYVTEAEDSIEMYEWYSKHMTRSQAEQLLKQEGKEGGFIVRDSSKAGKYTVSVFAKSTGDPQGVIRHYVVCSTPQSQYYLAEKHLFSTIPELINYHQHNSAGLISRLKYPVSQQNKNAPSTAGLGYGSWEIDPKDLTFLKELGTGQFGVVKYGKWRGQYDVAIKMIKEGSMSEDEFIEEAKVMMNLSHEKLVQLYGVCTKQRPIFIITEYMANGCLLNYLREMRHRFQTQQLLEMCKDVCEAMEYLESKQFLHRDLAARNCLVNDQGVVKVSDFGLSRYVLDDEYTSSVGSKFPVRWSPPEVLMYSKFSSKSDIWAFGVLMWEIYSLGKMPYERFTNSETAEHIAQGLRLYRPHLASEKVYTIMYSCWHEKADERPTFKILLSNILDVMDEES
# T1 sequence (P21709 26-976): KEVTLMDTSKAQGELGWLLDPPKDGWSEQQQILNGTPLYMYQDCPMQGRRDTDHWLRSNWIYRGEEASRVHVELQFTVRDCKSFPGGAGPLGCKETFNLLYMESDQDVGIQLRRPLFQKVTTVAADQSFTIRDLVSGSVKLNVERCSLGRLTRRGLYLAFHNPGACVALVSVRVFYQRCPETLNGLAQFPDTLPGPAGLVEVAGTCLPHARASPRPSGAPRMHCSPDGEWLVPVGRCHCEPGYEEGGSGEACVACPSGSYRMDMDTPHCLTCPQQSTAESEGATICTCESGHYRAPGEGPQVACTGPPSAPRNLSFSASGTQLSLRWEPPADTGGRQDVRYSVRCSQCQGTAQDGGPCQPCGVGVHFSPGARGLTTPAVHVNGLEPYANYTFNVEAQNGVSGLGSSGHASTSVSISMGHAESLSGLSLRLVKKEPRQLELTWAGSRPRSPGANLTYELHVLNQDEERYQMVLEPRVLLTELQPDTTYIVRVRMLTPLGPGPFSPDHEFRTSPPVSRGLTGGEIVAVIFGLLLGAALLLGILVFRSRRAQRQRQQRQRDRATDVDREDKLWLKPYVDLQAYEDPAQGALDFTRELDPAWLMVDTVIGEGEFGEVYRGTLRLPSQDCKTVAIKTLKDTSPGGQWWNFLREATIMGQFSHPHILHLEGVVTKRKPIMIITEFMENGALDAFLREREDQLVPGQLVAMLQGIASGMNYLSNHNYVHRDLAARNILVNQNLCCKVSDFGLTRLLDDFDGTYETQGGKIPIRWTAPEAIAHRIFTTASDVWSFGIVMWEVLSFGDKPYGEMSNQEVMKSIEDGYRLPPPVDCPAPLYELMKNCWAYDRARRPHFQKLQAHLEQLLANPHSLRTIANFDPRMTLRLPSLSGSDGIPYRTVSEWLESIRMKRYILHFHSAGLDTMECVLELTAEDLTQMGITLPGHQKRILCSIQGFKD
# T5 sequence (Q07912 whole entry): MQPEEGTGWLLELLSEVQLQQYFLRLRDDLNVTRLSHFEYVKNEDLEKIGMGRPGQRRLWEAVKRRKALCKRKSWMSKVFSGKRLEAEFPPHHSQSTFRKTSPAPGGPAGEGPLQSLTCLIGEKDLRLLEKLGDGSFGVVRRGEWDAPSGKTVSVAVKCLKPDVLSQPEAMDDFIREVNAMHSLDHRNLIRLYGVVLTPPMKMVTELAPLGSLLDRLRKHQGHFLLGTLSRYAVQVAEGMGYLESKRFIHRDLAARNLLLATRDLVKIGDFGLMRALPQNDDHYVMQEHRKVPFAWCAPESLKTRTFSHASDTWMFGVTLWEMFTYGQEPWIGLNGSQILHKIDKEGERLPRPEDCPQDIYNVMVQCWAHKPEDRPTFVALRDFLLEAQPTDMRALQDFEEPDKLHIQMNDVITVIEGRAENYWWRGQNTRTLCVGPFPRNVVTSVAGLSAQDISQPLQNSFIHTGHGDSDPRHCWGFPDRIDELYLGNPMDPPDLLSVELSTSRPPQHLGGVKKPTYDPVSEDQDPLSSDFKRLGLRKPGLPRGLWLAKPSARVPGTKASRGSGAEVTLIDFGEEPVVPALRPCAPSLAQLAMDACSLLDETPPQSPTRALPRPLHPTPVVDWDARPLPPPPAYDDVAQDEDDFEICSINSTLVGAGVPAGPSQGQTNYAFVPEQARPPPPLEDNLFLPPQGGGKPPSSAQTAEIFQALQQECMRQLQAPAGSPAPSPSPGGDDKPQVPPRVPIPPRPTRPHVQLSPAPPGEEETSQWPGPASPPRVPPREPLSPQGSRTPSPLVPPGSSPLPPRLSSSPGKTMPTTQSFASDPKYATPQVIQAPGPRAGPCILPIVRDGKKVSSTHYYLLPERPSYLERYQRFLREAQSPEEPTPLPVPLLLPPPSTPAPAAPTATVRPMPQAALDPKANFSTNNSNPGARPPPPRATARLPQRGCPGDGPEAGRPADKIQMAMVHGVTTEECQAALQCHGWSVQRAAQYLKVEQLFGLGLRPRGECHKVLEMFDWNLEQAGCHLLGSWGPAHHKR
# T6 sequence (P29320 21-983): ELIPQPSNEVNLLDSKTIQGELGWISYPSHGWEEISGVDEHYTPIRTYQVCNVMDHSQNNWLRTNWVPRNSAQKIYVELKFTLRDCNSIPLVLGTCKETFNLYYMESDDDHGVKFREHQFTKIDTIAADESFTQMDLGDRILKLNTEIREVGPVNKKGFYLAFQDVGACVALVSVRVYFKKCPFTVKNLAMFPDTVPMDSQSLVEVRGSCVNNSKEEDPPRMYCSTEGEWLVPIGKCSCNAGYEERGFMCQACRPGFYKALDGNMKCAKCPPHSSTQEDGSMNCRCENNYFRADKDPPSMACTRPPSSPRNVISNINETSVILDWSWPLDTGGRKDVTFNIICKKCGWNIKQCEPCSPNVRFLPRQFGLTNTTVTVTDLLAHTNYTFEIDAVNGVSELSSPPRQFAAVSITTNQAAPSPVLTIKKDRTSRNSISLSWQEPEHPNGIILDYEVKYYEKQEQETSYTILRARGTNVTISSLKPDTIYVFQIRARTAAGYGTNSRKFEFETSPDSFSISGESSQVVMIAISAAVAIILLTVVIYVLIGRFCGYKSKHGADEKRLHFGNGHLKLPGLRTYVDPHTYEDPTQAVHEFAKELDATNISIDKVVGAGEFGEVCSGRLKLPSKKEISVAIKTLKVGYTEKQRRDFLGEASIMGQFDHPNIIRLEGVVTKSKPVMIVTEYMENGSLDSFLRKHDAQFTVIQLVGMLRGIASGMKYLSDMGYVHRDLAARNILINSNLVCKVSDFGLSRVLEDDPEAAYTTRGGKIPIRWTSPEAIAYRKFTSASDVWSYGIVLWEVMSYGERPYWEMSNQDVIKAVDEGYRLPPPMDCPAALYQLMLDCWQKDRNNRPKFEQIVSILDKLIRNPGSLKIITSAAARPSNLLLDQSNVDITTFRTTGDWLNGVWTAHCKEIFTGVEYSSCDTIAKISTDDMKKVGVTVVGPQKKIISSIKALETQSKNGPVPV
substance,measurement,setting,value
Ibrutinib,kinase activity (%),[1]; 0.1 uM Ibrutinib,87.2%
same,kinase activity (%),[1]; 1 uM Ibrutinib,99.1%
same,kinase activity (%),[2]; 0.1 uM Ibrutinib,90.5%
same,kinase activity (%),[2]; 1 uM Ibrutinib,109.7%
same,kinase activity (%),[3]; 0.1 uM Ibrutinib,85.8%
same,kinase activity (%),[3]; 1 uM Ibrutinib,83.5%
same,kinase activity (%),[4]; 0.1 uM Ibrutinib,100.0%
same,kinase activity (%),[4]; 1 uM Ibrutinib,206.1%
same,kinase activity (%),[5]; 0.1 uM Ibrutinib,81.5%
same,kinase activity (%),[5]; 1 uM Ibrutinib,99.1%
same,kinase activity (%),[6]; 0.1 uM Ibrutinib,99.9%
same,kinase activity (%),[6]; 1 uM Ibrutinib,86.9%
same,kinase activity (%),[7]; 0.1 uM Ibrutinib,89.1%
same,kinase activity (%),[7]; 1 uM Ibrutinib,101.3%
same,kinase activity (%),[8]; 0.1 uM Ibrutinib,81.2%
same,kinase activity (%),[8]; 1 uM Ibrutinib,89.7%
same,kinase activity (%),[9]; 0.1 uM Ibrutinib,92.3%
same,kinase activity (%),[9]; 1 uM Ibrutinib,94.9%
same,kinase activity (%),[10]; 0.1 uM Ibrutinib,68.7%
same,kinase activity (%),[10]; 1 uM Ibrutinib,62.0%
same,kinase activity (%),[11]; 0.1 uM Ibrutinib,97.3%
same,kinase activity (%),[11]; 1 uM Ibrutinib,82.3%
same,kinase activity (%),[12]; 0.1 uM Ibrutinib,92.0%
same,kinase activity (%),[12]; 1 uM Ibrutinib,93.1%
same,sensitivity of cell line,"[13]; 0, 1 nM, 10 nM, 100 nM, 1 uM or 10 uM for 7 days",very sensitive
same,growth inhibition rate,"[13]; 1 uM, 7 days, Trypan blue exclusion, vs DMSO",72%
same,% Survival,[13]; percentage of viable cells after a 24-hour treatment of 1 nM ibrutinib,28.2%
same,kinase activity (%),[14]; 0.1 uM Ibrutinib,101.6%
same,kinase activity (%),[14]; 1 uM Ibrutinib,97.6%
same,inhibition in the responsive cell lines,[15],60-75%
same,kinase activity (%),[16]; 0.1 uM Ibrutinib,101.5%
same,kinase activity (%),[16]; 1 uM Ibrutinib,104.3%
same,kinase activity (%),[17]; 0.1 uM Ibrutinib,38.3%
same,kinase activity (%),[17]; 1 uM Ibrutinib,5.5%
